Assay: In vitro inhibition of inducible vascular cell adhesion molecule-1 (VCAM-1) expression in Human aortic endothelial cells (HAEC); NE denotes no effect; call rule not given here
Assay type: functional, cell-based
For CCOC(=O)CNCCS(=O)(=O)c1ccccc1, the IC50 was “Not Active”.
In the case of O=S(=O)(c1ccccc1)c1cccs1, the IC50 is reported as “Not Active”.
With COC(=O)CS(=O)(=O)c1ccccc1 the IC50 was “Not Active”.
With CCCOCCS(=O)(=O)c1cccc(N)c1 the IC50 was “Not Active”.
For CCS(=O)(=O)c1ccccc1, the IC50 was “Not Active”.
For Nc1cccc(S(=O)(=O)CCO)c1, the IC50 was “Not Active”.
With CCOCCS(=O)(=O)c1ccccc1 the IC50 was “Not Active”.
For CCN(CC)CCS(=O)(=O)c1ccccc1, the IC50 was “Not Active”.
With C=C[S+]([O-])c1ccccc1 (configuration not stated) the IC50 was “Not Active”.
With O=S(=O)(CCNCc1ccccc1)c1ccccc1 the IC50 was “Not Active”.
For CCCCCCCCOCCS(=O)(=O)c1ccccc1, the IC50 was “Not Active”.
For CCCNc1cccc(S(=O)(=O)CCOC(C)=O)c1, the IC50 was “Not Active”.
In the case of O=S(=O)(c1ccccc1)c1ccsc1, the IC50 is reported as “Not Active”.
In the case of C=CCCS(=O)(=O)c1ccccc1, the IC50 is reported as “Not Active”.
In the case of O=C1c2ccccc2C(=O)N1CCS(=O)(=O)c1ccccc1, the IC50 is reported as “Not Active”.
For CCCCCCCCNc1cccc(S(=O)(=O)CCOC(C)=O)c1, the IC50 was “Not Active”.
In the case of CC(=O)CCCS(=O)(=O)c1ccccc1, the IC50 is reported as “Not Active”.

Assay: In vitro inhibition of inducible vascular cell adhesion molecule-1 (VCAM-1) expression in Human aortic endothelial cells (HAEC)
Assay type: functional, cell-based
In the case of CC(=O)OCCS(=O)(=O)c1cccc(N)c1, the IC50 is reported as 10 µM.
Work on CCCCCCC/C=C/C(=O)Nc1cccc(S(=O)(=O)CCO)c1 yielded an IC50 of 23 µM.
In the case of CCCCCC#CC(=O)OCCS(=O)(=O)c1cccc(N)c1, the IC50 is reported as 6 µM.
Work on C=CC(=O)OCCS(=O)(=O)c1ccccc1 yielded an IC50 of 7 µM.
CCCCC/C=C/C(=O)OCCS(=O)(=O)c1ccccc1 showed an IC50 of 17 µM.
Work on CC(=O)Nc1cccc(S(=O)(=O)CCOC(C)=O)c1 yielded an IC50 of 4 µM.
Molecule C=CS(C)(=O)=O has an IC50 of 14 µM.
CCCCCC#CC(=O)Nc1cccc(S(=O)(=O)CCO)c1 showed an IC50 of 20 µM.
Work on CC(=O)OCCS(=O)(=O)c1ccccc1 yielded an IC50 of 12 µM.
With O=S(=O)(CCCl)c1ccccc1 the IC50 was 2 µM.
With CCCCC/C=C/C(=O)OCCS(=O)(=O)c1cccc(N)c1 the IC50 was 17 µM.
Work on O=S1(=O)C=Cc2ccccc21 yielded an IC50 of 4 µM.
C=CS(=O)(=O)c1cccc(NCCCCCCCC)c1 showed an IC50 of 29 µM.
CCCCCCC/C=C/C(=O)OCCS(=O)(=O)c1cccc(N)c1 gave an IC50 of 28 µM.
In the case of C=CS(=O)(=O)c1ccccc1 [(ETHENYLSULFONYL)BENZENE], the IC50 is reported as 2 µM.
